“Also recorded” adds a separate entry of the source.
Legend:
inositol 1 kinase = settings: in vitro; Tan et al.; cited from earlier work
[1] = tested on: colonic epithelial T84 cells (calcium-mediated chloride ion secretion); assay: Inhibition of calcium-mediated chloride ion secretion (Table I summary); type: cell-based, human; settings: pathway: Ins (3,4,5,6)P4
Source text: The invention provides compounds that are agonists or antagonists of inositol polyphosphates. Inositol polyphosphate derivatives can function as inositol polyphosphate agonists and antagonists. The effects of compounds of the invention on Ins(3,4,5,6)P4 - and PtdInsP3 -mediated inhibition of calcium-mediated chloride ion secretion are described in the Examples and summarized in Table I.
(§1) Enantiomerically pure 1,2-Bt2 -Ins(3,4,5,6)P4 /AM was synthesized to determine if 1,2-Bt2 -Ins(3,4,5,6)P4 /AM mediates the uncoupling of chloride ion secretion from intracellular calcium concentrations. T84 cells (passages 18-48) were maintained as described previously (Weymer, et al., J. Clin. Invest. 76:1828 (1985)), which is incorporated herein by reference. After 7-10 days of incubation on SNAP-WELLS (Corning Costar; Cambridge, Mass.), monolayers had formed tight junctions. Cell monolayers were preincubated with 100, 200 or 400 μM Bt2 -Ins(3,4,5,6)P4 /AM for 30 min prior to mounting. After an additional 30 min, 0.1 mM histamine was added and chloride ion secretion was monitored. Chloride ion secretion was measured as short circuit current (Isc) across T84 monolayers grown to confluence and mounted in Ussing chambers equipped with voltage clamps (Physiologic Instruments; San Diego, Calif.). Data was acquired and analyzed using "Acquire and Analyze" software (Physiologic Instruments).

[2] = tested on: T84 cells (histamine-stimulated chloride ion secretion); assay: Histamine-stimulated chloride ion secretion (short circuit current) in T84 monolayers; type: cell-based; settings: Homo sapiens, T84, 0.5 h; 800 μM compound alone; mean ± SEM; read-out: Peak ΔIsc (% Control) after histamine (100 μM)
[3] = tested on: T84 cells (Ins(3,4,5,6)P4 inhibition of histamine-stimulated chloride ion secretion); assay: Reversal of Bt2 -Ins(3,4,5,6)P4 /AM inhibition of histamine-stimulated chloride ion secretion in T84 cells; type: cell-based, human; settings: 400 μM antagonist + 200 μM Bt2 Ins (3,4,5,6)P4 /AM; mean ± SEM; 30 min
[4] = tested on: T84 cells (histamine-stimulated chloride ion secretion); assay: Histamine-stimulated chloride ion secretion (short circuit current) in T84 monolayers; type: cell-based, human; settings: for effect on histamine-stimulated / calcium-mediated chloride ion secretion (in words): T84 cells
Procedure: as §1, with “T84 cells (passages 18-48) were maintained as described previously (Weymer, et al., J. Clin. Invest. 76:1828 (1985)), which is incorporated herein by reference.” left out
(§2) Initial studies were directed towards understanding structural determinants of Ins(3,4,5,6)P4 responsible for the inhibitory effect on calcium-mediated chloride ion secretion. A series of cell permeable inositol polyphosphate derivatives were synthesized. These derivatives contained either one or two non-hydrolyzable chemical groups on the 1, 2 or 3 position. T84 monolayers were preincubated for 30 minutes with 200 μM of 2-Bt-1-Me-Ins(3,4,5,6)P4 /AM, Me2 -Ins(3,4,5,6)P4 /AM, Me2 -Ins(1,4,5,6)P4 /AM or 2-Bt-3-Me-Ins(1,4,5,6)P4 /AM.
(§3) Following the incubation, cells were mounted in Ussing chambers. Calcium-mediated chloride ion secretion was stimulated with histamine (10^-4 M). Control values were the response to histamine in coincubated monolayers. Data are represented as mean peak ΔIsc ±SEM, expressed as % control for 8 to 10 experiments. Significant differences were identified using the Student's two-tailed t test.

[5] = tested on: T84 cells (Ins(3,4,5,6)P4 inhibition of histamine-stimulated chloride ion secretion); assay: Reversal of Bt2 -Ins(3,4,5,6)P4 /AM inhibition of histamine-stimulated chloride ion secretion in T84 cells; type: cell-based, human; settings: T84 cells, histamine-stimulated
Procedure: as §2, §3
T84 cells were preincubated with cell permeant inositol polyphosphates as described above to determine if any of the inositol polyphosphate derivatives function as antagonists of Ins(3,4,5,6)P4 inhibition of calcium-mediated chloride ion secretion. Following histamine stimulation, short circuit current was measured. […] The % control shown in FIG. 3 represents ΔIsc over peak Isc in control monolayers stimulated with histamine. However, […]

Ins(3,4,5,6)P4 = settings: cited from earlier work
[6] = tested on: T84 cells (thapsigargin-stimulated chloride ion secretion); assay: Thapsigargin-stimulated chloride ion secretion in T84 cells; type: cell-based, human; settings: carbachol 10^-4 M, thapsigargin 1 μM; FIG. 5A
Source text: Carbachol, a muscarinic cholinergic compound, also increases intracellular calcium ion concentration and stimulates chloride ion secretion with short term treatment. However, following long-term treatment of colonic epithelial T84 cells with carbachol, increased concentrations of intracellular calcium ions no longer stimulate chloride ion secretion (Kachintorn et al., Am. J. Physiol. Cell 264:C671 (1993)), which is incorporated herein by reference. […] Thus, Ins(3,4,5,6)P4 is an endogenous negative regulator of calcium-mediated chloride ion secretion because it uncouples chloride ion secretion from calcium ion concentration.
One set of cells was preincubated for 30 min with an inositol polyphosphate derivative. The other two sets of cells were preincubated with vehicle, alone. Measurement of Isc was initiated at time 0. At 5 min, carbachol (10^-4 M) was added to one set of cells preincubated with vehicle alone (designated "Carbachol" in FIG. 5) and to the set of cells preincubated with inositol polyphosphate derivatives (designated "Carbachol+D,L-1,2-Cyclohexylidene-Ins(3,4,5,6)P4 /AM" in FIG. 5A). At 30 min, 1 μM thapsigargin was added. Data were collected for n=4 to 6 experiments.

[7] = tested on: T84 cells (histamine-stimulated chloride ion secretion); settings: equivalent to 200 μM extracellular concentration; Vajanaphanich et al.; cited from earlier work
intracellular calcium = assay: Intracellular calcium concentration in treated cells; type: cell-based, human
Procedure: Elevation in intracellular calcium concentration leads to increased chloride ion secretion. To ensure that none of the effects of the inositol polyphosphate derivatives on chloride ion secretion were due to changes in calcium levels, the concentration of intracellular calcium was measured in cells treated with the inositol polyphosphate derivatives. […] None of the compounds tested altered intracellular calcium levels by themselves or modified levels of intracellular calcium stimulated with carbachol or thapsigargin. Therefore, the effects of inositol polyphosphate derivatives on chloride ion secretion are not due to any effect on intracellular calcium concentrations.

Ins(1,3,4)P3-5/6-kinase = settings: Vajanaphanich et al. 1994; cited from earlier work
[8] = tested on: T84 cells (cyclic AMP-mediated chloride ion secretion); assay: Dibutyryl cyclic AMP acetoxymethyl ester stimulated chloride ion secretion in T84 cells; type: cell-based, human
Procedure: as §1, with “After an additional 30 min, 0.1 mM histamine was added and chloride ion secretion was monitored.” left out
[…]; mean±SEM; n=4).

[9] = tested on: rabbit colon (calcium-mediated chloride ion secretion); assay: Chloride ion secretion in rabbit colonic epithelia (Ussing chambers)
Procedure: The results obtained above using T84 colonic epithelial cells in culture were confirmed using a rabbit colon model system (Frizzell et al., J. Membrane Biol. 27:297 (1976); and Frizell and Schultz, Int. Rev. Physiol. 19:205 (1979)), each of which is incorporated herein by reference. Segments of rabbit colon were excised and used as a source of rabbit colonic epithelia. Briefly, segments of rabbit colon were washed with Ringers solution containing 141 mM Na^+, 5 mM K^+, 1.2 mM Ca^2+, 1.2 mM Mg^2+, 122 mM Cl^-, 25 mM HCO3, 1.6 mM HPO4, 0.4 mM H2 PO4 and 10 mM glucose. At 37° C., this solution is pH 7.4 when gassed with 5% CO2 and 95% O2. Epithelium was stripped of the underlying muscle layer and mounted in modified SNAP WELLS (Frizzell et al., supra, 1976). Epithelia were preincubated with 200 μM 1,2-Bt2 -Ins(3,4,5,6)P4 /AM for 30 min at 37° C. and mounted in Ussing chambers. Short circuit current, conductance and resistance were measured at 4 sec intervals as described in Example I. Peak Isc was 50.9% ±10.4 of controls which were incubated with vehicle (FIG. 2; mean±SEM, n=3; p<0.05 by Student's two tailed t-test). The % control shown in FIG. 2 represents ΔIsc over peak Isc in control monolayers stimulated with histamine.

## O=P(O)(O)O[C@H]1[C@H](O)[C@@H](O)[C@H](OP(=O)(O)O)[C@@H](OP(=O)(O)O)[C@H]1O [Ins(1,3,4)P3]
Inositol 1 kinase
  effect on inositol 1 kinase (in words): inhibited inositol 1 kinase

## CCCC(=O)O[C@@H]1[C@H](OC)[C@H](OP(=O)(OCOC(C)=O)OCOC(C)=O)[C@@H](OP(=O)(OCOC(C)=O)OCOC(C)=O)[C@H](OP(=O)(OCOC(C)=O)OCOC(C)=O)[C@H]1OP(=O)(OCOC(C)=O)OCOC(C)=O (relative stereo) [D,L-1-Bt-2-Me-Ins(3,4,5,6)P4 /AM, D,L-1-O-butyryl-2-O-methyl-myo-inositol 3,4,5,6-TKphosphate oct (acetoxymethyl) ester]
[1]
  Mechanism and Inositol Polyphosphate Pathway Affected: Agonist of
[2]
  activity at 800 µM: 114 ± 23.7%
[3]
  Peak ΔIsc (% Control) after histamine (100 μM): 96.7 ± 14.8 % Control
[4]
  effect on histamine-stimulated / calcium-mediated chloride ion secretion (in words): did not inhibit chloride ion secretion
[5]
  reversal of the inhibitory effect of Bt2 -Ins(3,4,5,6)P4 /AM / Ins(3,4,5,6)P4-mediated inhibition (in words): did not reverse the inhibition of Bt2 -Ins(1,4,5,6)P4 /AM

## C[N+](C)(C)CCOC(N)=O [Carbachol]
Ins(3,4,5,6)P4; background
  increase in Ins(3,4,5,6)P4 levels: ≤ 20 -fold
Ins(3,4,5,6)P4; long-term treatment, Vajanaphanich et al.
  rise of intracellular Ins(3,4,5,6)P4 levels (in words): slow and prolonged rise of intracellular Ins(3,4,5,6)P4 levels
[6]
  effect of prolonged carbachol on thapsigargin-stimulated ΔIsc (in words): ΔIsc was attenuated

## O=P(O)(O)O[C@H]1[C@H](OP(=O)(O)O)[C@@H](OP(=O)(O)O)[C@@H](O)[C@@H](O)[C@@H]1OP(=O)(O)O [Ins(3,4,5,6)P4, myo-inositol 3,4,5,6-tetrakisphosphate]
[7]
  intracellular level corresponding to onset of maximum inhibition: ~4 µM

## CCCC(=O)O[C@@H]1[C@H](OC(=O)CCC)[C@H](OP(=O)(OCOC(C)=O)OCOC(C)=O)[C@@H](OP(=O)(OCOC(C)=O)OCOC(C)=O)[C@H](OP(=O)(OCOC(C)=O)OCOC(C)=O)[C@H]1OP(=O)(OCOC(C)=O)OCOC(C)=O [Bt2 -Ins(3,4,5,6)P4 /AM, 1,2-di-O-butyryl-myo-inositol 3,4,5,6-TKphosphate oct (acetoxymethyl) ester]
[1]
  Mechanism and Inositol Polyphosphate Pathway Affected: Agonist of
[4]; Homo sapiens, T84, 0.5 h, 100 μM compound, mean ± SEM, read-out: Peak ΔIsc (% Control) after histamine (100 μM)
  activity at 100 µM: 75.1 ± 7.4%
[4]; Homo sapiens, T84, 0.5 h, 200 μM compound alone, mean ± SEM, read-out: Peak ΔIsc (% Control) after histamine (100 μM)
  activity at 200 µM: 57.2 ± 15.1%
[4]; Homo sapiens, T84, 0.5 h, 400 μM compound alone, mean ± SEM, read-out: Peak ΔIsc (% Control) after histamine (100 μM)
  activity at 400 µM: 69.3 ± 8.7%
[4]
  effect on histamine-stimulated / calcium-mediated chloride ion secretion (in words): inhibit calcium-mediated chloride secretion; also recorded: inhibited chloride ion secretion in response to increased concentrations of intracellular calcium; also recorded: decreased histamine-stimulated chloride ion secretion relative to control cells
[4]; extracellular, no further decrease with 400 μM
  concentration for maximum decrease of histamine-stimulated chloride ion secretion: 200 µM
Intracellular calcium; alone
  effect on intracellular calcium (in words): does not increase intracellular calcium
Intracellular calcium; thapsigargin or carbachol stimulated
  effect on calcium response to thapsigargin or carbachol (in words): does not affect calcium response to thapsigargin
Ins(1,3,4)P3-5/6-kinase
  effective intracellular concentration: about 4 μM
[8]
  inhibition of dibutyryl cyclic AMP acetoxymethyl ester stimulated chloride ion secretion (in words): no inhibition
[8]; mean±SEM, n=4
  peak ΔIsc, dibutyryl cyclic AMP acetoxymethyl ester stimulated chloride ion secretion: 96.3±9.1 % or control
[9]; FIG. 2 / Example II
  effect on chloride ion secretion in rabbit colon (in words): inhibition of chloride ion secretion; also recorded: decreases chloride ion secretion in rabbit colon
[9]; Oryctolagus cuniculus, 0.5 h, 200 μM, 30 min at 37° C., mean±SEM, n=3, p<0.05, read-out: Peak Isc, of controls
  activity at 200 µM: 50.9%

— patent publication US5880099A, “Inositol polyphosphates and methods of using same” (The Regents of the University of California, priority 1997, dated 1999)
